Test system: yeast genes (level of expressed mRNA)
Test: DNA chip analysis of expressed mRNA of yeast genes after 2 h culture with a toxic chemical substance
Type: cell-based, Saccharomyces cerevisiae S288C
Outline: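 S. cerevisiae S288C in YPD at 25 °C was exposed at log phase for 2 h to a growth-inhibiting, non-lethal concentration of the chemical. Poly(A) mRNA was reverse-transcribed with Cy3- or Cy5-dUTP and hybridized to a whole-genome yeast DNA chip (65 °C, >12 h). Values are fluorescence ratios versus untreated cells.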

Substance: sodium dodecylbenzosulfonate [(17)]
- level of expressed mRNA in the presence of chemical substance/in its absence (gene YGL104C): 1.3
- level of expressed mRNA in the presence of chemical substance/in its absence (gene YGL126W): 0.9
- level of expressed mRNA in the presence of chemical substance/in its absence (gene YGL134W): 0.9
- level of expressed mRNA in the presence of chemical substance/in its absence (gene YGL154C): 1.0
- The level of expressed mRNA in the presence of chemical substance/absence: YGL183C (gene YGL183C): 1.4
- level of expressed mRNA in the presence of chemical substance/in its absence (gene YGL209W): 1.1
- The level of expressed mRNA in the presence of chemical substance/absence: YGL223C (gene YGL223C): 0.8
- level of expressed mRNA in the presence of chemical substance/in its absence (gene YGL253W): 0.7
- The level of expressed mRNA in the presence of chemical substance/absence: YGR038W (gene YGR038W): 1.1
- level of expressed mRNA in the presence of chemical substance/in its absence (gene YGR060W): 1.3
- The level of expressed mRNA in the presence of chemical substance/absence: YGR139W (gene YGR139W): 1.0
- The level of expressed mRNA in the presence of chemical substance/absence: YGR156W (gene YGR156W): 0.8
- The level of expressed mRNA in the presence of chemical substance/absence: YGR198W (gene YGR198W): 1.1
- The level of expressed mRNA in the presence of chemical substance/absence: YGR210C (gene YGR210C): 1.1
- The level of expressed mRNA in the presence of chemical substance/absence: YGR211W (gene YGR211W): 0.5
- The level of expressed mRNA in the presence of chemical substance/absence: YGR237C (gene YGR237C): 0.9
- The level of expressed mRNA in the presence of chemical substance/absence: YGR243W (gene YGR243W): 2.1
- The level of expressed mRNA in the presence of chemical substance/absence: YGR250C (gene YGR250C): 1.3
- The level of expressed mRNA in the presence of chemical substance/absence: YGR266W (gene YGR266W): 0.7
- The level of expressed mRNA in the presence of chemical substance/absence: YGR277C (gene YGR277C): 1.3
- level of expressed mRNA in the presence of chemical substance/in its absence (gene YGR282C): 1.1
- The level of expressed mRNA in the presence of chemical substance/absence: YGR293C (gene YGR293C): 0.8
- The level of expressed mRNA in the presence of chemical substance/absence: YHL006C (gene YHL006C): 1.1
- The level of expressed mRNA in the presence of chemical substance/absence: YHL021C (gene YHL021C): 1.3
- The level of expressed mRNA in the presence of chemical substance/absence: YHL037C (gene YHL037C): 0.9
- level of expressed mRNA in the presence of chemical substance/in its absence (gene YHR037W): 1.0
- The level of expressed mRNA in the presence of chemical substance/absence: YHR083W (gene YHR083W): 0.8
- level of expressed mRNA in the presence of chemical substance/in its absence (gene YHR092C): 0.9
- The level of expressed mRNA in the presence of chemical substance/absence: YHR095W (gene YHR095W): 0.8
- The level of expressed mRNA in the presence of chemical substance/absence: YHR105W (gene YHR105W): 1.0
- The level of expressed mRNA in the presence of chemical substance/absence: YHR134W (gene YHR134W): 1.3
- level of expressed mRNA in the presence of chemical substance/in its absence (gene YHR137W): 0.8
- The level of expressed mRNA in the presence of chemical substance/absence: YHR180W (gene YHR180W): 0.8
- The level of expressed mRNA in the presence of chemical substance/absence: YHR181W (gene YHR181W): 0.9
- level of expressed mRNA in the presence of chemical substance/in its absence (gene YHR190W): 1.3
- level of expressed mRNA in the presence of chemical substance/in its absence (gene YIL033C): 1.0
- The level of expressed mRNA in the presence of chemical substance/absence: YIL108W (gene YIL108W): 1.2
- The level of expressed mRNA in the presence of chemical substance/absence: YIL127C (gene YIL127C): 0.7
- level of expressed mRNA in the presence of chemical substance/in its absence (gene YIL154C): 1.2
- The level of expressed mRNA in the presence of chemical substance/absence: YIL165C (gene YIL165C): 1.4
- level of expressed mRNA in the presence of chemical substance/in its absence (gene YIL167W): 0.7
- level of expressed mRNA in the presence of chemical substance/in its absence (gene YIR035C): 1.1
- The level of expressed mRNA in the presence of chemical substance/absence: YJL017W (gene YJL017W): 1.0
- The level of expressed mRNA in the presence of chemical substance/absence: YJL032W (gene YJL032W): 1.1
- The level of expressed mRNA in the presence of chemical substance/absence: YJL037W (gene YJL037W): 1.3
- The level of expressed mRNA in the presence of chemical substance/absence: YJL049W (gene YJL049W): 0.9
- level of expressed mRNA in the presence of chemical substance/in its absence (gene YJL088W): 1.4
- The level of expressed mRNA in the presence of chemical substance/absence: YJL097W (gene YJL097W): 1.2
- level of expressed mRNA in the presence of chemical substance/in its absence (gene YJL132W): 1.3
- level of expressed mRNA in the presence of chemical substance/in its absence (gene YJL196C): 0.9
- The level of expressed mRNA in the presence of chemical substance/absence: YJR030C (gene YJR030C): 0.7
- The level of expressed mRNA in the presence of chemical substance/absence: YJR044C (gene YJR044C): 1.8
- level of expressed mRNA in the presence of chemical substance/in its absence (gene YJR142W): 1.2
- level of expressed mRNA in the presence of chemical substance/in its absence (gene YJR148W): 1.3
- level of expressed mRNA in the presence of chemical substance/in its absence (gene YJR159W): 1.7
- The level of expressed mRNA in the presence of chemical substance/absence: YKL051W (gene YKL051W): 1.5
- The level of expressed mRNA in the presence of chemical substance/absence: YKL059C (gene YKL059C): 1.1
- level of expressed mRNA in the presence of chemical substance/in its absence (gene YKL067W): 1.4
- The level of expressed mRNA in the presence of chemical substance/absence: YKL090W (gene YKL090W): 0.7
- The level of expressed mRNA in the presence of chemical substance/absence: YKL094W (gene YKL094W): 1.2
- The level of expressed mRNA in the presence of chemical substance/absence: YKL097C (gene YKL097C): 1.1
- The level of expressed mRNA in the presence of chemical substance/absence: YKL100C (gene YKL100C): 0.7
- level of expressed mRNA in the presence of chemical substance/in its absence (gene YKR039W): 0.9
- The level of expressed mRNA in the presence of chemical substance/absence: YKR040C (gene YKR040C): 0.7
- The level of expressed mRNA in the presence of chemical substance/absence: YLR097C (gene YLR097C): 1.1
- level of expressed mRNA in the presence of chemical substance/in its absence (gene YLR142W): 1.9
- level of expressed mRNA in the presence of chemical substance/in its absence (gene YLR180W): 0.8
- The level of expressed mRNA in the presence of chemical substance/absence: YLR226W (gene YLR226W): 1.1
- level of expressed mRNA in the presence of chemical substance/in its absence (gene YLR273C): 1.0
- level of expressed mRNA in the presence of chemical substance/in its absence (gene YLR300W): 0.7
- level of expressed mRNA in the presence of chemical substance/in its absence (gene YLR307W): 1.1
- The level of expressed mRNA in the presence of chemical substance/absence: YLR338W (gene YLR338W): 0.8
- The level of expressed mRNA in the presence of chemical substance/absence: YLR339C (gene YLR339C): 0.7
- The level of expressed mRNA in the presence of chemical substance/absence: YLR392C (gene YLR392C): 0.8
- The level of expressed mRNA in the presence of chemical substance/absence: YLR415C (gene YLR415C): 0.8
- The level of expressed mRNA in the presence of chemical substance/absence: YLR427W (gene YLR427W): 1.0
- The level of expressed mRNA in the presence of chemical substance/absence: YML013W (gene YML013W): 1.1
- The level of expressed mRNA in the presence of chemical substance/absence: YML029W (gene YML029W): 1.2
- The level of expressed mRNA in the presence of chemical substance/absence: YML041C (gene YML041C): 1.3
- The level of expressed mRNA in the presence of chemical substance/absence: YML079W (gene YML079W): 1.4
- level of expressed mRNA in the presence of chemical substance/in its absence (gene YML110C): 1.1
- The level of expressed mRNA in the presence of chemical substance/absence: YML118W (gene YML118W): 1.5
- The level of expressed mRNA in the presence of chemical substance/absence: YMR068W (gene YMR068W): 1.3
- The level of expressed mRNA in the presence of chemical substance/absence: YMR071C (gene YMR071C): 1.2
- level of expressed mRNA in the presence of chemical substance/in its absence (gene YMR105C): 1.6
- The level of expressed mRNA in the presence of chemical substance/absence: YMR114C (gene YMR114C): 1.0
- The level of expressed mRNA in the presence of chemical substance/absence: YMR115W (gene YMR115W): 1.0
- The level of expressed mRNA in the presence of chemical substance/absence: YMR160W (gene YMR160W): 0.9
- level of expressed mRNA in the presence of chemical substance/in its absence (gene YMR189W): 1.0
- The level of expressed mRNA in the presence of chemical substance/absence: YMR258C (gene YMR258C): 1.1
- level of expressed mRNA in the presence of chemical substance/in its absence (gene YMR271C): 1.3
- level of expressed mRNA in the presence of chemical substance/in its absence (gene YMR272C): 1.3
- level of expressed mRNA in the presence of chemical substance/in its absence (gene YMR296C): 0.8
- level of expressed mRNA in the presence of chemical substance/in its absence (gene YNL012W): 1.3
- The level of expressed mRNA in the presence of chemical substance/absence: YNL026W (gene YNL026W): 1.0

— patent US20050112573A1, “Method of detecting toxic substance” (priority 2001, published 2005)
